From publication PMC5519068 (PLoS ONE, 2017)
Entries after “also recorded” stand apart in the source; their conditions may differ.

What was measured:
[1] = tested on: Flt3 and Fes in primary AML patient samples; parameters: method as in PMID 20111072; details: cited from earlier work
[2] = tested on: Fes in TF-1/Flt3-ITD cells; experiment: Immunoprecipitation/immunoblot of Fes pY713 in TF-1/Flt3-ITD cells; format: cell-based, human; details: compound at in vitro IC90 for Fes, 16 h (tandutinib: IC90 for Flt3-ITD, 6 h)
Protocol: (§1) AML cells (2.5 x 10^6 in 5 mL) were cultured in the presence of kinase inhibitors or DMSO alone for 6 to 16 hours prior to lysis by sonication in RIPA buffer (50 mM Tris-HCl, pH 7.4, 150 mM NaCl, 1 mM EDTA, 1% Triton X-100, 0.1% SDS, 1% sodium deoxycholate) supplemented with 1 mM sodium orthovanadate, 1 mM sodium fluoride, 5 units/ml Benzonase (Novagen), and SigmaFAST EDTA-free protease inhibitor cocktail (Sigma). Flt3 and Fes were immunoprecipitated from 1 mg of cell lysate with 2 μg of antibody and 25 μL of protein G-Sepharose beads (Life Technologies) overnight at 4°C. Immunoprecipitates were washed three times by resuspension in 1.0 ml of RIPA buffer. Immunoprecipitated proteins were separated by SDS-PAGE, transferred to PVDF membranes and probed with the indicated antibodies followed by alkaline phosphatase-linked secondary antibodies. CDP-Star Western Blot Chemiluminescence Reagent (Perkin-Elmer) was used for detection.
(§2) Raw fluorescence data were corrected for background and then normalized to cultures grown in the presence of the DMSO carrier solvent. Each condition was performed in triplicate, and results are presented as the mean of the normalized values ± the SD. The resulting dose-response curves were fitted by non-linear regression analysis for estimation of the IC50 values (see Table 2). […] Fes and Flt3 kinase proteins were then immunoprecipitated from cell lysates followed by immunoblotting with antibodies to phosphotyrosine (pTyr), the Fes activation loop phosphotyrosine (pY713), as well as the Flt3 and Fes proteins.

[3] = tested on: Flt3-ITD+ AML cell lines (MV4-11, MOLM-13, MOLM-14); experiment: Apoptosis, Apo-ONE Caspase 3/7 assay; format: cell-based, human; details: 1.0 μM, 72 h
Protocol: (§3) Cells were seeded at a density of 100,000 cells per 1.0 ml in 48-well culture plates. Compounds were added to various concentrations while holding the DMSO concentration constant at 0.1%. Cell viability was assessed 72 hours later using the CellTiter-Blue Cell Viability assay (Promega) according to the manufacturer’s protocol and a SpectraMax Multi-Mode Microplate Reader (Molecular Devices). IC50 values were determined by non-linear regression analysis of concentration-response curves using the GraphPad PRISM software package (version 6.0). Apoptosis was determined using the same cell culture conditions and the Apo-ONE Homogeneous Caspase-3/7 Assay (Promega) and the manufacturer’s protocol.
Cell viability was measured in parallel using the CellTiter-Blue assay, and the resulting data are presented as the ratio of Caspase activity to cell viability as per the manufacturer’s protocol. All assays were performed in triplicate, and data are presented as the mean ratios ± SD. Asterisks indicate statistical significance between each treatment group vs. the corresponding DMSO control group with p < 0.05 (Student’s t-test).

[4] = tested on: T1, Fes in MV4-11 and MOLM-14 cells; experiment: Immunoprecipitation/immunoblot of Fes activation loop phosphorylation (pY713) in AML cells; format: cell-based, human; details: compound at in vitro IC90 for Fes, 16 h (tandutinib: IC90 for Flt3-ITD, 6 h)
T1 construct: endogenous in cells; host or cells: MV4-11 and MOLM-14
Protocol: as §1
(§4) Fes and Flt3 kinase proteins were then immunoprecipitated from cell lysates, followed by immunoblotting with antibodies to phosphotyrosine (pTyr), the Fes activation loop phosphotyrosine (pY713), as well as the Flt3 and Fes proteins.

[5] = tested on: TF-1 cells expressing Flt3-WT; experiment: Inhibitor sensitivity of TF-1 cell populations, CellTiter-Blue, 72 h; format: cell-based; details: Homo sapiens, TF-1, 72 h, read-out: Inhibitor sensitivity of TF-1 Cell Populations (IC50, nM) Flt3-WT
Protocol: as §3
(§5) For each retroviral transduction, TF-1 cells (1 x 10^6) were suspended in 5 mL of undiluted viral supernatant and plated in one well of a 6-well tissue culture dish. Polybrene (Sigma) was added to a final concentration of 4 μg/mL and the TF-1 cells were centrifuged at 1000 x g for 3 hours to enhance retroviral mediated gene transfer. After centrifugation, the virus was removed and replaced with fresh medium.
as §2

[6] = tested on: Flt3-ITD-transformed Ba/F3 cells; details: cited from earlier work
TF-1/Flt3-D835Y cells = experiment: Inhibitor sensitivity of TF-1 cell populations, CellTiter-Blue, 72 h; format: cell-based, human; details: Homo sapiens, TF-1, 72 h, read-out: Inhibitor sensitivity of TF-1 Cell Populations (IC50, nM) Flt3-D835Y
Protocol: as §3, §5, §2

[7] = tested on: TF-1 cells transduced with an empty retroviral vector (Control); experiment: as above; format: cell-based, human
Protocol: as §3, §5, §2

TF-1/Flt3-ITD cells = experiment: as above; format: cell-based, human; details: Homo sapiens, TF-1, 72 h, read-out: Inhibitor sensitivity of TF-1 Cell Populations (IC50, nM) Flt3-ITD
Protocol: as §3, §5, §2

[8] = tested on: Flt3-ITD in MV4-11 and MOLM-14 cells; experiment: Immunoprecipitation/immunoblot of Flt3 phosphotyrosine content in AML cells; format: cell-based, human; details: compound at in vitro IC90 for Fes, 16 h (tandutinib: IC90 for Flt3-ITD, 6 h)
Protocol: as §1, §4

[9] = tested on: Flt3-D835Y in TF-1/Flt3-D835Y cells; experiment: Immunoprecipitation/immunoblot of Flt3-D835Y phosphotyrosine content in TF-1/Flt3-D835Y cells; format: cell-based, human; details: immunoblot, compound at in vitro IC90
Protocol: as §1, §2

[10] = tested on: Flt3-ITD in TF-1/Flt3-ITD cells; experiment: Immunoprecipitation/immunoblot of Flt3 phosphotyrosine content in TF-1/Flt3-ITD cells; format: cell-based, human; details: compound at in vitro IC90 for Fes, 16 h (tandutinib: IC90 for Flt3-ITD, 6 h)
Protocol: as §1, §2

MOLM-14 cells = experiment: Growth inhibition, CellTiter-Blue viability, 72 h; format: cell-based; details: Homo sapiens, MOLM-14 (Flt3-ITD+), read-out: Growth Suppression in AML Cell Lines (IC50, nM) MOLM-14
Protocol: as §3
(§6) Fig 2 Fes tyrosine kinase inhibitors induce growth arrest in Flt3-ITD^+ AML cell lines. A) The Flt3-ITD^+ cell lines MV4-11, MOLM-13, and MOLM-14, along with THP-1 (wild-type FLT3) were incubated with each of the kinase inhibitors shown over a range of concentrations, and cell viability was measured 72 h later using the CellTiter-Blue Assay (see Materials and methods). Raw fluorescence data were corrected for background and then normalized to cultures grown in the presence of the DMSO carrier solvent. Each assay condition was performed in triplicate, and results are presented as the mean of the normalized values ± the SD. The resulting dose-response curves were fitted by non-linear regression analysis, and the resulting IC50 values are shown in Table 1.

MOLM-13 cells = experiment: Growth inhibition, CellTiter-Blue viability, 72 h; format: cell-based; details: Homo sapiens, MOLM-13 (Flt3-ITD+), read-out: Growth Suppression in AML Cell Lines (IC50, nM) MOLM-13
Protocol: as §3, §6

MV4-11 cells = experiment: Growth inhibition, CellTiter-Blue viability, 72 h; format: cell-based; details: Homo sapiens, MV4-11 (Flt3-ITD+), read-out: Growth Suppression in AML Cell Lines (IC50, nM) MV4-11
Protocol: as §3, §6

THP-1 cells [11] = experiment: Growth inhibition, CellTiter-Blue viability, 72 h; format: cell-based; details: Homo sapiens, THP-1 (wild-type Flt3), read-out: Growth Suppression in AML Cell Lines (IC50, nM) THP-1
Protocol: as §3, §6

Flt3-ITD in Ba/F3 cells = details: 100 nM; cited from earlier work
[12] = tested on: Flt3-ITD+ AML cell lines (MV4-11, MOLM-13, MOLM-14); experiment: Growth inhibition across Flt3-ITD+ AML cell lines; format: cell-based; details: Homo sapiens, 72 h, read-out: IC50 values for growth inhibition, range over the Flt3-ITD+ AML cell lines
Protocol: as §3
Raw fluorescence data were corrected for background and then normalized to cultures grown in the presence of the DMSO carrier solvent. Each assay condition was performed in triplicate, and results are presented as the mean of the normalized values ± the SD.

THP-1 cells [13] = experiment: Apoptosis, Apo-ONE Caspase 3/7 assay; format: cell-based, human; details: 1.0 μM, 72 h
Protocol: as §3
Fig 3 Fes tyrosine kinase inhibitors induce apoptosis in Flt3-ITD^+ AML cell lines. The Flt3-ITD^+ cell lines MV4-11, MOLM-13, and MOLM-14, along with THP-1 (wild-type FLT3), were incubated with each of kinase inhibitors shown at a final concentration of 1 μM and apoptosis was measured 72 h later using the Apo-ONE Caspase 3/7 Assay (Promega). Cell viability was measured in parallel using the CellTiter-Blue assay, and the resulting data are presented as the ratio of Caspase activity to cell viability as per the manufacturer’s protocol. All assays were performed in triplicate, and data are presented as the mean ratios ± SD. […]

[14] = target: T2, recombinant full-length Fes (Homo sapiens, UniProt P07332); experiment: In vitro kinase assay (Z'-LYTE); format: biochemical; details: highest concentration tested 100 μM
T2 construct: in vitro kinase assays using recombinant purified full-length Fes; made in house; host or cells: E. coli
Protocol: Recombinant protein kinase assays were performed using the FRET-based Z’-LYTE Kinase Assay according to the manufacturer’s instructions (Thermo Fisher Scientific). […] The Tyr-2 peptide was used as substrate for all recombinant kinases. Kinases were preincubated with inhibitors for 30 minutes, followed by addition of ATP and peptide substrate for 1 hour. Reactions were quenched by addition of development reagent, followed by incubation for an additional hour prior to fluorescence measurements on a SpectraMax M5 microplate reader. IC50 values were calculated by non-linear regression analysis of the resulting concentration-response curves using GraphPad PRISM.

Stat5 activation = tested on: Stat5 activation; parameters: method as in PMID 22411868; details: MV4-11 cells and AML patient samples; cited from earlier work

T2 sequence (P07332 whole entry): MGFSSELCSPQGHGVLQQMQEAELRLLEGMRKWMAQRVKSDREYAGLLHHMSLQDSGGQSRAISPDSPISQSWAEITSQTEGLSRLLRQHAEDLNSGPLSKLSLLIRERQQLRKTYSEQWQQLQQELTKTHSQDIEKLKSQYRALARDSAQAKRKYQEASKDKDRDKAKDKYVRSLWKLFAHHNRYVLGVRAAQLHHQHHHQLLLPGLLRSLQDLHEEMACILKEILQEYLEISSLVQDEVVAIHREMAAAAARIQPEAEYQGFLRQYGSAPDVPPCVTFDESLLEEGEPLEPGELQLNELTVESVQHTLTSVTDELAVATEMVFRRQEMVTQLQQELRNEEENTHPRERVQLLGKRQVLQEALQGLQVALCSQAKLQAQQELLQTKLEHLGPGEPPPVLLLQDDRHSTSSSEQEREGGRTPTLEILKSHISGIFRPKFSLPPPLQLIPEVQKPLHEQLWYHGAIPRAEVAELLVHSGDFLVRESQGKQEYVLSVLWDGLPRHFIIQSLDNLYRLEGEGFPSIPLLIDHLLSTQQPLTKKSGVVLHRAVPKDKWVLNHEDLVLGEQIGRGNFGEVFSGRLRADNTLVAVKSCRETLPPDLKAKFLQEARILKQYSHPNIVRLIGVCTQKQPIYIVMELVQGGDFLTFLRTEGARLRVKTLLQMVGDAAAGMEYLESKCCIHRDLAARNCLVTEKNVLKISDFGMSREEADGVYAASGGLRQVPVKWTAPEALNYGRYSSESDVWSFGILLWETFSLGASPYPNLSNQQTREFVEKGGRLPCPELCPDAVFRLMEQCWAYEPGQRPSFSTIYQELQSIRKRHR

Cc1cc(C)c(/C=C2\C(=O)Nc3ccccc32)[nH]1 [SU5416]
Effect on Flt3 and Fes activation in primary AML patient samples [1]: reduced both Flt3 and Fes activation

COc1cc(N2CCC(N3CCN(C)CC3)CC2)ccc1Nc1ncc(Cl)c(Nc2ccccc2S(=O)(=O)C(C)C)n1 [TAE-684, reference compound]
Inhibition of Fes activation loop phosphorylation in TF-1/Flt3-ITD cells [2]: inhibited Fes
Apoptosis (Caspase 3/7 activity) in Flt3-ITD+ AML cell lines [3]: equal to or greater than that observed with tandutinib
Inhibition of Fes activation loop phosphorylation in MV4-11 and MOLM-14 cells [4]: did inhibit Fes
IC50 [5]: > 1000 nM
Effect on Flt3-ITD-transformed Ba/F3 cell proliferation [6]: no effect
IC50 (TF-1/Flt3-D835Y cells): 83 nM
IC50 ([7]; Homo sapiens, TF-1, empty vector control, 72 h): > 1000 nM
Nonspecific cytotoxicity in TF-1 cells expressing wild-type Flt3 or vector control cells ([7]; TF-1/Flt3-WT and vector control cells): some nonspecific cytotoxicity in the low micromolar range
IC50 (TF-1/Flt3-ITD cells): 82 nM
Inhibition of Flt3-ITD phosphotyrosine content in MV4-11 and MOLM-14 cells [8]: no effect
Inhibition of Flt3-D835Y phosphotyrosine content in TF-1/Flt3-D835Y cells [9]: complete inhibition; also recorded: completely suppressed
Inhibition of Flt3-ITD phosphotyrosine content in TF-1/Flt3-ITD cells [10]: no effect on Flt3-ITD; also recorded: did not affect Flt3-ITD phosphotyrosine content
IC50 (MOLM-14 cells): 74 nM
IC50 (MOLM-13 cells): 166 nM
IC50 (MV4-11 cells): 123 nM
IC50 (THP-1 cells [11]): > 3000 nM
Effect on Flt3-ITD phosphotyrosine content in Ba/F3 cells expressing Flt3-ITD (Flt3-ITD in Ba/F3 cells): no effect
IC50 [12]: 19 to 166 nM

CN[C@@H]1C[C@H]2O[C@@](C)([C@@H]1OC)n1c3ccccc3c3c4c(c5c6ccccc6n2c5c31)C(=O)NC4 [staurosporine, reference compound]
Apoptosis (Caspase 3/7 activity) in Flt3-ITD+ AML cell lines [3]: strong apoptotic response
Apoptosis (Caspase 3/7 activity) in THP-1 cells (THP-1 cells [13]): strong apoptotic response

COc1cc2c(N3CCN(C(=O)Nc4ccc(OC(C)C)cc4)CC3)ncnc2cc1OCCCN1CCCCC1 [Tandutinib, reference compound]
Inhibition of Fes activation loop phosphorylation in MV4-11 and MOLM-14 cells [4]: little effect
Effect on Fes kinase activity in vitro (words) [14]: does not inhibit Fes in vitro or in cells
Effect on Fes kinase activity in vitro (words) ([14]; listed as tandutinib): no effect
IC50 (MOLM-14 cells): 232 nM
IC50 (MOLM-13 cells): 532 nM
IC50 (MV4-11 cells): 502 nM
IC50 (THP-1 cells [11]): > 3000 nM

Cc1nc(Nc2ncc(C(=O)Nc3c(C)cccc3Cl)s2)cc(N2CCN(CCO)CC2)n1 [dasatinib]
Effect on Stat5 activation (Stat5 activation): reduced Stat5 activation
